Assay results published in patent publication US20250092065A1, “2-(INDAZOL-5-YL)-6-(PIPERIDIN-4-YL)-1,7-NAPHTHYRIDINE DERIVATIVES AND RELATED COMPOUNDS AS MODULATORS FOR SPLICING NUCLEIC ACIDS AND FOR THE TREATMENT OF PROLIFERATIVE DISEASES” (REMIX THERAPEUTICS INC., priority 2022, published 2025).
pIC50: −log10 of the molar value. Where two headings read alike, the source gives them in different places.

Assays:
K562 cells = experiment: Cell Titer Glo 2.0 cell viability (toxicity) assay, K562; settings: 500 cells/well, 72 hours
SMN2 mRNA = experiment: RT-qPCR splicing assay, SMN2 mRNA; assay type: cell-based, human; settings: Homo sapiens, canonical junction qPCR panel, Table 4; read-out: SMN2 IC50 (decrease in CJ mRNA levels)
Experimental: (§1) Compounds described herein were used to modulate RNA transcript abundance in cells. The expression of a target mRNA was measured by detecting the formation of an exon-exon junction in the canonical transcript (CJ). A compound mediated exon-inclusion event was detected by observing an increase in formation of a new junction with an alternative exon (AJ). Real-time qPCR assays were used to detect these splicing switches and interrogate the potency of various compounds towards different target genes. A high-throughput real time quantitative PCR (RT-qPCR) assay was developed to measure these two isoforms of the mRNA (CJ and AJ) for exemplary genes, such as HTT, SMN2, and MYB, together with a control housekeeping gene, GAPDH or GUSB or PPIA, used for normalization. Briefly, the A673 or K562 cell line was treated with various compounds described herein (e.g., compounds of Formula (I)). After treatment, the levels of the HTT, MYB, or SMN2 mRNA targets were determined from each sample of cell lysate by cDNA synthesis followed by qPCR.
(§2) The A673 cell line was cultured in DMEM with 10% FBS. Cells were diluted with full growth media and plated in a 96-well plate (15,000 cells in 100 ul media per well). The plate was incubated at 37° C. with 5% CO2 for 24 hours to allow cells to adhere. An 11-point 3-fold serial dilution of the compounds was made in DMSO then diluted in media in an intermediate plate. Compounds were transferred from the intermediate plate to the cell plate with the top dose at a final concentration of 10 uM in the well. Final DMSO concentration was kept at or below 0.25%. The cell plate was returned to the incubator at 37° C. with 5% CO2 for an additional 24 hours.
(§3) The K562 cell line was cultured in IMDM with 10% FBS. For K562, cells were diluted with full growth media and plated in either a 96-well plate (50,000 cells in 50 uL media per well) or a 384-well plate (8,000-40,000 cells in 45 uL media per well). An 11-point 3-fold serial dilution of the compounds were made in DMSO then diluted in media in an intermediate plate. Compound was transferred from the intermediate plate to the cell plate with the top dose at a final concentration of 10 uM in the well. Final DMSO concentration was kept at or below 0.25%. Final volume was 100 uL for 96-well plate and 50 uL for 384-well plate. The cell plate was then placed in an incubator at 37° C. with 5% CO2 for 24 hours.
(§4) The cells were then gently washed with 50 uL-100 uL cold PBS before proceeding to addition of lysis buffer. 30 uL-50 μL of room temperature lysis buffer with DNAse I (and optionally RNAsin) was added to each well. Cells were shaken/mixed thoroughly at room temperature for 5-10 minutes for lysis to take place and then 3 uL-5 μL of room temperature stop solution was added and wells were shaken/mixed again. After 2-5 minutes, the cell lysate plate was transferred to ice for RT-qPCR reaction setup. The lysates could also be frozen at −80° C. for later use.
(§5) In some cases, a direct lysis buffer was used. An appropriate volume of 3× lysis buffer (10 mM Tris, 150 mM NaCl, 1.5%-2.5% Igepal and 0.1-1 U/uL RNAsin, pH 7.4) was directly added to either K562 or A673 cells in media and mixed by pipetting 3 times. The plates were then incubated at room temperature with shaking/rocking for 20-50 minutes to allow for lysis to take place. After this time, the cell lysate plate was transferred to ice to set up for the RT-qPCR reactions. The lysates could also be frozen at −80° C. for later use.
(§6) To set up 10 uL RT-qPCR reactions, cell lysates were transferred to 384-well qPCR plates containing the master mix according to the table below. The plates were sealed, gently vortexed, and spun down before the run. The volumes were adjusted accordingly in some instances where the reaction was carried in 20 μL. The table below summarizes the components of the RT-qPCR reactions:
(§7) The RT-qPCR reaction was performed using a QuantStudio (ThermoFisher) under the following fast cycling conditions. […]

HTT mRNA = experiment: RT-qPCR splicing assay, HTT mRNA canonical (CJ) and alternative (AJ) junction; assay type: cell-based, human; settings: Homo sapiens; for AC50: HTT alternative junction mRNA increase, read-out: HTT AJ (increase in alternative junction mRNA, AC50)
Experimental: as §1, §2, §3, §4, §5, §6, §7

MYB mRNA = experiment: RT-qPCR splicing assay, MYB mRNA canonical (CJ) and alternative (AJ) junction; assay type: cell-based, human; settings: Homo sapiens; for AC50: MYB alternative junction mRNA increase, read-out: MYB AJ (increase in alternative junction mRNA, AC50)
Experimental: as §1, §2, §3, §4, §5, §6, §7

[1] = RT-qPCR, HTT canonical junction mRNA decrease, read-out: HTT CJ (decrease in canonical junction mRNA, IC50)
[2] = canonical junction qPCR panel, Table 4, read-out: HTT IC50 (decrease in CJ mRNA levels)
[3] = RT-qPCR, MYB canonical junction mRNA decrease, read-out: MYB CJ (decrease in canonical junction mRNA, IC50)
[4] = canonical junction qPCR panel, Table 4, read-out: MYB IC50 (decrease in CJ mRNA levels)

Compound	pIC50 (SMN2 mRNA)	pIC50 (HTT mRNA; [1])	pIC50 (HTT mRNA; [2])	pIC50 (MYB mRNA; [3])	pIC50 (MYB mRNA; [4])	Effect of Exemplary Compounds on Cell Viability, K562 (K562 cells)	AC50 (HTT mRNA; RT-qPCR) [nM]	AC50 (MYB mRNA; RT-qPCR) [nM]
C[C@@H]1CN(c2ccc3nc(-c4cc(F)c5nncn5c4)ncc3c2)C[C@H](C)N1 [Compound 833]	6.00 to 7.00	5.00 to 6.00	5.00 to 6.00	5.00 to 6.00	5.00 to 6.00	C (C represents 1000-9999 nM)	1000 to 10000	1000 to 10000
CCc1cn2cc(-c3ncc4cc(N5C[C@@H](C)N[C@@H](C)C5)ccc4n3)cc(F)c2n1 [Compound 836]	6.00 to 7.00	5.00 to 6.00	5.00 to 6.00	< 5.00	< 5.00	C (C represents 1000-9999 nM)	> 10000	1000 to 10000
Cc1cn2cc(-c3ncc4cc(N5C[C@@H](C)N[C@@H](C)C5)ccc4n3)cc(Cl)c2n1 [Compound 896]	–	–	–	–	–	B (B represents 100-1000 nM)	–	–
Cn1cc2cc(-c3ncc4cc(N5CC[C@@H](NC(C)(C)C)C5)ccc4n3)c(O)c(F)c2n1 [Compound 930]	> 7.00	5.00 to 6.00	5.00 to 6.00	6.00 to 7.00	6.00 to 7.00	–	> 10000	100 to 1000

Second part, led by results:

pIC50 (SMN2 mRNA)	pIC50 (HTT mRNA; [1])	pIC50 (HTT mRNA; [2])	pIC50 (MYB mRNA; [3])	pIC50 (MYB mRNA; [4])	Compound	Effect of Exemplary Compounds on Cell Viability, K562 (K562 cells)	AC50 (HTT mRNA; RT-qPCR) [nM]	AC50 (MYB mRNA; RT-qPCR) [nM]
> 7.00	< 5.00	< 5.00	6.00 to 7.00	6.00 to 7.00	Cc1cn2cc(-c3ncc4cc(N5C[C@@H](C)N[C@@H](C)C5)ccc4n3)ccc2n1 [Compound 832]	C (C represents 1000-9999 nM)	> 10000	1000 to 10000
> 7.00	5.00 to 6.00	5.00 to 6.00	6.00 to 7.00	6.00 to 7.00	C[C@@H]1CN(c2ccc3nc(-c4cc(F)c5nc(CO)cn5c4)ncc3c2)C[C@H](C)N1 [Compound 834, (6-{6-[(3R,5S)-3,5-dimethylpiperazin-1-yl]quinazolin-2-yl}-8-fluoroimidazo[1,2-a]pyridin-2-yl)methanol]	C (C represents 1000-9999 nM)	1000 to 10000	100 to 1000
> 7.00	5.00 to 6.00	5.00 to 6.00	6.00 to 7.00	6.00 to 7.00	C[C@@H]1CN(c2ccc3nc(-c4cc(F)c5nc(CF)cn5c4)ncc3c2)C[C@H](C)N1 [Compound 835, 6-[(3R,5S)-3,5-dimethylpiperazin-1-yl]-2-[8-fluoro-2-(fluoromethyl)imidazo[1,2-a]pyridin-6-yl]quinazoline]	B (B represents 100-1000 nM)	1000 to 10000	100 to 1000
> 7.00	5.00 to 6.00	5.00 to 6.00	> 7.00	> 7.00	Cn1cc2cc(-c3ncc4cc(N5CC[C@H](NC(C)(C)C)C5)ccc4n3)c(O)c(F)c2n1 [Compound 929]	–	100 to 1000	< 100
